Here are results for twelve compounds from patent US20110159111A1, “PHARMACEUTICAL COMBINATIONS” (priority 2006, published 2011).

Read-outs that look alike come from different tables or passages of the source. Where only a bound is given, the exact number is not on record here.

Data set [1] is described as follows: Thermogravimetric analysis (TGA). It is filed as physicochemical. As to conditions: heated at 10° C./min. As for the experimental part: Approximately 5 mg of sample (accurately weighed) was placed into a platinum TGA pan and loaded into a TGA 7 gravimetric analyser. The sample under study was then heated at a rate of 10° C./min (from ambient to 300° C.) and the resulting change in weight monitored. A dry nitrogen purge gas at a flow rate of 20 ml/min was used to produce an inert atmosphere and prevent oxidation of the sample during heating. Prior to analysis the instrument was weight calibrated using a 100 mg reference standard and temperature calibrated using an Alumel reference standard (using the Curie point transition temperature).

Data set [2] in a line: Vapour sorption/desorption analysis (IgaSorp balance). Type of data set: physicochemical. As for the experimental part:
Approximately 20 mg of sample was placed into a wire-mesh vapour sorption balance pan and loaded into an ‘IgaSorp’ vapour sorption balance (Hiden Analytical Instruments) held at 25+/−0.1° C. The sample was then dried by maintaining a 0% humidity environment (using mass flow control apparatus) until no further weight change was recorded. Subsequently, the sample was then subjected to a ramping profile from 0-90% relative humidity (% RH) at 10% RH increments, maintaining the sample at each step until equilibration had been attained (99.5% step completion).
Upon reaching equilibration, the % RH within the apparatus was ramped to the next step and the equilibration procedure repeated. After completion of the sorption cycle, the sample was then dried using the same procedure. The weight change during the sorption/desorption cycles was then monitored, allowing for the hygroscopic nature of the sample to be determined.

The nature of data set [3]: Solubilities of acid addition salts of 1-(2,6-difluorophenyl)-N-[3-(5-morpholin-4-ylmethyl-1H-benzimidazol-2-yl)-1H-pyrazol-4-yl]-urea. It is filed as physicochemical. As for the experimental part: This was carried out as described in Example 61 of WO 2006/070195 at pages 173 to 175 (the content of which is incorporated herein by reference).
For data set [4] the following is noted: antitumour agent; cited from earlier work.
The test system of data set [5] is human colon carcinoma cell line HCT 116. As to the kind of experiment: Anti-proliferative activity, HCT-116 cell line (Set B). Type of data set: cell-based. To be noted: HCT 116 (ECACC No. 91091005), Set B Example 1. From the text:
Anti-proliferative Activity
See Example 15 of WO 2006/077426 at pages 100-101 (which is incorporated herein by reference).

For data set [6] the following is noted: clinical studies; cited from earlier work.
Data set [7] can be described thus: Gravimetric vapour sorption (GVS). It is filed as physicochemical. As to conditions: forms of 1-cyclopropyl-3-[3-(5-morpholin-4-ylmethyl-1H-benzoimidazol-2-yl)-1H-pyrazol-4-yl]-urea; 25° C., 0-95% RH. As for the experimental part: E. Gravimetric Vapour Sorption (GVS):
The sample size was ca. 10-25 mg. […] The sample was loaded and unloaded at room humidity and temperature (ca. 40% RH, 25° C.) and analysed afterwards by XRPD (using a Bruker AXS C2 GADDS system).

Another data set concerns the target T1, PKG (Homo sapiens, UniProt Q13976).
T1 sequence (Q13976 1-671): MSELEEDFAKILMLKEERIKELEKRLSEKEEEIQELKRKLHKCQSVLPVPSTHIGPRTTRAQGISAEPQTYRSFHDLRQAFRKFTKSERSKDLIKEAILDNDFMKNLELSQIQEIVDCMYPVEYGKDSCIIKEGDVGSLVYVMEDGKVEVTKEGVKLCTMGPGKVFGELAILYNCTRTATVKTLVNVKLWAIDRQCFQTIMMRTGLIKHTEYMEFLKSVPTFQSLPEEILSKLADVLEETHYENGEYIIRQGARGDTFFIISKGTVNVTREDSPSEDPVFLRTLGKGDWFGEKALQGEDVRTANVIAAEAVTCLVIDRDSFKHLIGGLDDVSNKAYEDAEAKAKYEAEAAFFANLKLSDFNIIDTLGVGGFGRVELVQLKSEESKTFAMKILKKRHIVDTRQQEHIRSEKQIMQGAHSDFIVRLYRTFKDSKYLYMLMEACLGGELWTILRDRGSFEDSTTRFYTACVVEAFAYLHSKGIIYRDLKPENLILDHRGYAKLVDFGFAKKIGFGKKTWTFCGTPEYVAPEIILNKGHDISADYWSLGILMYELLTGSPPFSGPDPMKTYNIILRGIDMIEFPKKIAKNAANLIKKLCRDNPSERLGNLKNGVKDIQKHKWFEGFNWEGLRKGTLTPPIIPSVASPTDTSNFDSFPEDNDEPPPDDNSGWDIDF
As to conditions: cited from earlier work.

In another data set the test system is PKC. To be noted: cited from earlier work.
A further data set deals with OVCAR-3 tumour cells. To be noted: concentrations of 50 and 100 microM; cited from earlier work.
The subject of data set [8] is Acute Promyelocytic Leukemia. To be noted: APL patients; cited from earlier work.
The test system of data set [9] is P-glycoprotein-overexpressing subline of CCRF-CEM. To be noted: cited from earlier work.
The test system of data set [10] is chronic lymphocytic leukaemia. To be noted: initial therapy, symptomatic CLL patients; cited from earlier work.
In data set [11] the test system is Chronic Myeloid Leukaemia. As to conditions: CML patients in blast phase; cited from earlier work.

With `CS(=O)(=O)N1CCC(NC(=O)c2n[nH]cc2NC(=O)c2c(Cl)cccc2Cl)CC1`, the “TGA significant event (thermally induced partial degradation prior to melt)” value in [1] (ambient to 300° C.) was “about 288 °C”. The TGA mass loss entry in [1] (up to 150° C., crystals from Example 5 Step 8) is reported as “approximately 0.2%”. For the same compound, the “weight loss during initial drying” value in data set [2] (0% RH, 25° C.) is “approximately 0.01%”. Also, the “total weight increase upon equilibration” value in data set [2] (stepwise 0-90% RH, equilibration at 90% RH, 25° C.) was found to be 0.24%. In addition, the “hygroscopicity / hydrate formation” value in [2] (storage in elevated humidity conditions) is “physically stable with regard to hygroscopicity”.
For the compound “1-(2,6-difluorophenyl)-N-[3-(5-morpholin-4-ylmethyl-1H-benzimidazol-2-yl)-1H-pyrazol-4-yl]-urea [D-glucuronate]”, the solubility entry in data set [3] (acid addition salts of 1-(2,6-difluorophenyl)-N-[3-(5-morpholin-4-ylmethyl-1H-benzimidazol-2-yl)-1H-pyrazol-4-yl]-urea, liquid carrier (e.g. water)) is on record as “greater than 25 mg/ml”.
Regarding `CCN[C@H]1CO[C@@H](O[C@H]2[C@H](O[C@H]3C#C/C=C\C#C[C@]4(O)CC(=O)C(NC(=O)OC)=C3/C4=C\CSSSC)O[C@H](C)[C@@H](NO[C@H]3C[C@H](O)[C@H](SC(=O)c4c(C)c(I)c(O[C@@H]5O[C@@H](C)[C@H](O)[C@@H](OC)[C@H]5O)c(OC)c4OC)[C@@H](C)O3)[C@@H]2O)C[C@@H]1OC` [Calicheamicin], the “potency relative to adriamycin” value in data set [4] is “over 1,000 times”.
`O=C(NC1CCNCC1)c1n[nH]cc1NC(=O)c1c(Cl)cccc1Cl` [Example 1] came in with an IC50 in [5] below 20 µM.
Turning to `CCCCCCCCCCCCCCCCCCOP(=O)([O-])OC1CC[N+](C)(C)CC1` [KRX-0401], the half-life in [6] was around 100 h.
Regarding `C[C@H](O)C(=O)O.O=C(Nc1c[nH]nc1-c1nc2cc(CN3CCOCC3)ccc2[nH]1)NC1CC1` [L-lactate salt, 1-cyclopropyl-3-[3-(5-morpholin-4-ylmethyl-1H-benzoimidazol-2-yl)-1H-pyrazol-4-yl]-urea], the GVS isotherm behaviour entry in data set [7] is “does not display hygroscopic behaviour and does not form a hydrate”.
Regarding `O=S(=O)(NCCNCC=C(c1ccccc1)c1ccccc1)c1cccc2cnccc12` [NL-71-101], the IC50 was 36 µM at PKG and 104 µM with PKC. Moreover, the apoptosis result in the data set on OVCAR-3 tumour cells is “induced apoptosis”.
On to `CC1=C(/C=C/C(C)=C/C=C/C(C)=C/C(=O)O)C(C)(C)CCC1` [Tretinoin, all-trans retinoic acid], for which the remissions induced in data set [8] is on record as 64-100%.
`C/C1=C/C[C@@H](/C(C)=C/c2csc(C)n2)OC(=O)C[C@H](O)C(C)(C)C(=O)[C@H](C)[C@@H](O)[C@@H](C)CCC1` [desoxyepothilone B]: the IC50 in data set [9] was 0.017 µM.
For `O=C(Nc1c[nH]nc1-c1nc2cc(CN3CCOCC3)ccc2[nH]1)Nc1c(F)cccc1F` [esylate, 1-(2,6-difluorophenyl)-N-[3-(5-morpholin-4-ylmethyl-1H-benzimidazol-2-yl)-1H-pyrazol-4-yl]-urea], the solubility in data set [3] is above 100 mg/mL.
Consider `Nc1nc(F)nc2c1ncn2[C@@H]1O[C@H](CO)[C@@H](O)[C@@H]1O` [fludarabine], for which, in data set [10], the “duration of progression-free survival” value is on record as 33 months and the “rate of complete responses” value is on record as 27%.
As for `Cc1ccc(NC(=O)c2ccc(CN3CCN(C)CC3)cc2)cc1Nc1nccc(-c2cccnc2)n1` [imatinib, 4-[(4-methyl-1-piperazinyl)methyl]-N-[4-methyl-3-[[4-(3-pyridinyl)-2-ylpyridinyl]amino]-phenyl]benzamide methanesulfonate], the duration of remissions in data set [11] is 2-6 months.

One may read the solubility as the dissolved amount per volume that the medium holds. A word on the IC50: it is the concentration that inhibits the measured activity by half. As a reminder, the half-life is the time in which the quantity being followed falls by half.
